Assays:
[1] = biological target: Fibroblast growth factor receptor 1 (Homo sapiens, UniProt P11362); conditions: at 10 µM
[2] = biological target: T1, Tyrosine-protein kinase Lyn (Homo sapiens, UniProt P07948); experiment: Selectivity interaction (KinomeScan (DiscoverX)) EUB0000092b LYN; conditions: at 10 µM
[3] = biological target: Cyclin-dependent kinase 8 (Homo sapiens, UniProt P49336); experiment: Selectivity interaction (KinomeScan (DiscoverX)) EUB0000666a CDK8; conditions: at 10 µM
[4] = biological target: AP2-associated protein kinase 1 (Homo sapiens, UniProt Q2M2I8); conditions: at 10 µM
[5] = biological target: T2, Serine/threonine-protein kinase TBK1 (Homo sapiens) (UniProt Q9UHD2); experiment: Selectivity interaction (Kinase panel (Z-LYTE Assay)) EUB0001632a TBK1; conditions: at 10 µM
T2 sequence (whole entry): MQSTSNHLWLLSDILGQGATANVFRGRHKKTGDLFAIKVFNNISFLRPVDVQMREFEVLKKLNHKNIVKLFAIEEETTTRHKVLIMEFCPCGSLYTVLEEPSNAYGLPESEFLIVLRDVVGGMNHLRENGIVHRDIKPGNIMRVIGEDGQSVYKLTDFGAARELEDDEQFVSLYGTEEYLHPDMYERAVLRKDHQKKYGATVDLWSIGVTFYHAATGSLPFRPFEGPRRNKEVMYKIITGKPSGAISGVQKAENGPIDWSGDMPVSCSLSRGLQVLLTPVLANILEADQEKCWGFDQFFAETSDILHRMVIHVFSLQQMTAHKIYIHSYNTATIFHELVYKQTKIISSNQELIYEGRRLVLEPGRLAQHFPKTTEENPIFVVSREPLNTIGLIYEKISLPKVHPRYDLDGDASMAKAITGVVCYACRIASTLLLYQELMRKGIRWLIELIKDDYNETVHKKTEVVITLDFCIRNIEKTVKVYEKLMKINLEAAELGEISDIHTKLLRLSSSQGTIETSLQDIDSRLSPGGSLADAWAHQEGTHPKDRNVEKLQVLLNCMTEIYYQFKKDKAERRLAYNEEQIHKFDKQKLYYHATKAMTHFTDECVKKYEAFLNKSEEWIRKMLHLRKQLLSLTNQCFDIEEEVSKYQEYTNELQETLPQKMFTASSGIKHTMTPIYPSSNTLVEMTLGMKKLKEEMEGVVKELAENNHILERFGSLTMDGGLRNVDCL

[6] = biological target: Mitotic checkpoint serine/threonine-protein kinase BUB1 (Homo sapiens, UniProt O43683)
[7] = biological target: Casein kinase I isoform epsilon (Homo sapiens, UniProt P49674); experiment: Selectivity interaction (KinomeScan (DiscoverX)) EUB0000607a CSNK1E; conditions: at 10 µM
[8] = biological target: T3, Ephrin type-B receptor 1 (Homo sapiens) (UniProt P54762); experiment: Selectivity interaction (KinomeScan (DiscoverX)) EUB0000607a EPHB1; conditions: at 10 µM
T3 sequence (whole entry): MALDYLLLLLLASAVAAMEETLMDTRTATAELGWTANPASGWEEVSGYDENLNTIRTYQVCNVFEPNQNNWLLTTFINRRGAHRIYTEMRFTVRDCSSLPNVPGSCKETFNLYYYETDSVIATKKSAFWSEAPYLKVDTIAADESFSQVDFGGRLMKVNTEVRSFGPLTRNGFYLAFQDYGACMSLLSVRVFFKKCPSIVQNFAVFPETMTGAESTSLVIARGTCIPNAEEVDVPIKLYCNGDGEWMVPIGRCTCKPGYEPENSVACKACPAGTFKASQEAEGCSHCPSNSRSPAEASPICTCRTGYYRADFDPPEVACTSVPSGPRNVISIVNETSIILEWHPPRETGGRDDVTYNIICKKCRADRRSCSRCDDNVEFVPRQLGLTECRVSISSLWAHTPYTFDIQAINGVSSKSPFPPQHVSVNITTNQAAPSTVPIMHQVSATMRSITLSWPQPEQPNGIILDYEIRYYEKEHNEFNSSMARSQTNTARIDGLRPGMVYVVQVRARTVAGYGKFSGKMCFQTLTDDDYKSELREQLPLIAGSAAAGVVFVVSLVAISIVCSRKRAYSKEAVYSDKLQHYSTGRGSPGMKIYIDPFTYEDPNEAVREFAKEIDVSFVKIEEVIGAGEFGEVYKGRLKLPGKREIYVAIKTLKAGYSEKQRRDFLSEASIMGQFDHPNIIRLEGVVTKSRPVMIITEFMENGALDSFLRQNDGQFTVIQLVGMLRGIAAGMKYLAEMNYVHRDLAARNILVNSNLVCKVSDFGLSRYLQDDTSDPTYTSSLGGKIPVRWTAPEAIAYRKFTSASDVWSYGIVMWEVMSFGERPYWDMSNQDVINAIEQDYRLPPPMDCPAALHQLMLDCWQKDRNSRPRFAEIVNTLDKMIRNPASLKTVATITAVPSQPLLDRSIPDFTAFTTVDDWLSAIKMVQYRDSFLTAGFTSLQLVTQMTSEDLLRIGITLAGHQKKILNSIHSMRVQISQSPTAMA

[9] = biological target: T1, Tyrosine-protein kinase Lyn; experiment: Selectivity interaction (KinomeScan (DiscoverX)) EUB0000695a LYN; conditions: at 100 nM
[10] = biological target: T4, Tyrosine-protein kinase ITK/TSK (Homo sapiens) (UniProt Q08881); experiment: Selectivity interaction (KinomeScan (DiscoverX)) EUB0000618a ITK; conditions: at 10 µM
T4 sequence (whole entry): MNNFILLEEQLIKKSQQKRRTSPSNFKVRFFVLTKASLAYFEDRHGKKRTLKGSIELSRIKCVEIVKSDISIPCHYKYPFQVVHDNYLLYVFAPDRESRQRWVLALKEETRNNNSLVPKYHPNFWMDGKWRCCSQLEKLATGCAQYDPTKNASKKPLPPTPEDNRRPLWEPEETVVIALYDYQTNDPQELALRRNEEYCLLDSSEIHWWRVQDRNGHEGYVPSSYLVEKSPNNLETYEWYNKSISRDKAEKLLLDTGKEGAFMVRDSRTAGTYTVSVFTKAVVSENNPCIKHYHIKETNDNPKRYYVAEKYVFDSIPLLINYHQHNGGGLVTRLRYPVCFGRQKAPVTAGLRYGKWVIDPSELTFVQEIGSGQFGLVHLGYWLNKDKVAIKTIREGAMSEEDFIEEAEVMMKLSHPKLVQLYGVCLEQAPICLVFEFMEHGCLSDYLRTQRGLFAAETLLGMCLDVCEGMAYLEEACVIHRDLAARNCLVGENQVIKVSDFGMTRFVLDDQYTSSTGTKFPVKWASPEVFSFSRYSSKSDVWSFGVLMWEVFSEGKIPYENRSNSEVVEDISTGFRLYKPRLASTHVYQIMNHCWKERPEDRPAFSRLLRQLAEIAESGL

[11] = biological target: RAC-beta serine/threonine-protein kinase (Homo sapiens) (UniProt P31751); experiment: Selectivity interaction (KinomeScan (DiscoverX)) EUB0000618a AKT2; conditions: at 10 µM
[12] = biological target: Ribosomal protein S6 kinase alpha-2 (Homo sapiens) (UniProt Q15349); experiment: Selectivity interaction (Ambit KINOMEscan and KiNATiv profiling in Jurkat cells) EUB0000090b RPS6KA2; format: cell-based; conditions: at 1 µM
Chain of Ribosomal protein S6 kinase alpha-2 (Homo sapiens) (Q15349 whole entry): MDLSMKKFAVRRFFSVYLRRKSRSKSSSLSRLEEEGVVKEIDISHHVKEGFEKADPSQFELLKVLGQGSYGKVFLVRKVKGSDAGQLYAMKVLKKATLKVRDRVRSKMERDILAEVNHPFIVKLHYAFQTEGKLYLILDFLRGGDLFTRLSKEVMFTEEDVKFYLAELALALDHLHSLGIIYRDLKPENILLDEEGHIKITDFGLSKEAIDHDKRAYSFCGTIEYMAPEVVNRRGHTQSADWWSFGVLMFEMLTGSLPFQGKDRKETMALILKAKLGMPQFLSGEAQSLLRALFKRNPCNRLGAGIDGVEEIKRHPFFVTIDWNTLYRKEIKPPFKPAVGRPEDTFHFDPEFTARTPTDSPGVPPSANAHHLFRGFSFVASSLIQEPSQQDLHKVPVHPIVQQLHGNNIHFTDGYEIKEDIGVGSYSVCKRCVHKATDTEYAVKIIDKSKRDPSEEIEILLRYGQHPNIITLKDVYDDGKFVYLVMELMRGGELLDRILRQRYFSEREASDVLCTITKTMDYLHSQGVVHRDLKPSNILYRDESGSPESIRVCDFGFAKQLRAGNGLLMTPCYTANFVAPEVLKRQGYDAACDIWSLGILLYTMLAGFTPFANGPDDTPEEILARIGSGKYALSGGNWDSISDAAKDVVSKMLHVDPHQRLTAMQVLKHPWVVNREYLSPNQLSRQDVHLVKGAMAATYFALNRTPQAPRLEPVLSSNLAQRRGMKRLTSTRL

T1 sequence (P07948 2-512 limits assumed): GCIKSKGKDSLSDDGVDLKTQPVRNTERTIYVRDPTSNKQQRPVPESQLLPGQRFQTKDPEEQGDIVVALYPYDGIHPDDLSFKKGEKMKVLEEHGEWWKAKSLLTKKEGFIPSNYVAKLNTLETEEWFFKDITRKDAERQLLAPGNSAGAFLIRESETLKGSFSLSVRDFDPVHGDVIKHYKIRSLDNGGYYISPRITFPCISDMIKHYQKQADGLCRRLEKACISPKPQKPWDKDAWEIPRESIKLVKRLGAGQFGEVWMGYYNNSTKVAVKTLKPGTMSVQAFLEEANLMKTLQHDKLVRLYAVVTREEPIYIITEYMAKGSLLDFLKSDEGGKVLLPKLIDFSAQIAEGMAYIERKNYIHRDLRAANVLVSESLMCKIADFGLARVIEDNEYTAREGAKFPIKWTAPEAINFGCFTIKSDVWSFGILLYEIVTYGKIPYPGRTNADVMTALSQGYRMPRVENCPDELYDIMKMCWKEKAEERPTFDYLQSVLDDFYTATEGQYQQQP
Chain of Mitotic checkpoint serine/threonine-protein kinase BUB1 (O43683 whole entry, canonical isoform): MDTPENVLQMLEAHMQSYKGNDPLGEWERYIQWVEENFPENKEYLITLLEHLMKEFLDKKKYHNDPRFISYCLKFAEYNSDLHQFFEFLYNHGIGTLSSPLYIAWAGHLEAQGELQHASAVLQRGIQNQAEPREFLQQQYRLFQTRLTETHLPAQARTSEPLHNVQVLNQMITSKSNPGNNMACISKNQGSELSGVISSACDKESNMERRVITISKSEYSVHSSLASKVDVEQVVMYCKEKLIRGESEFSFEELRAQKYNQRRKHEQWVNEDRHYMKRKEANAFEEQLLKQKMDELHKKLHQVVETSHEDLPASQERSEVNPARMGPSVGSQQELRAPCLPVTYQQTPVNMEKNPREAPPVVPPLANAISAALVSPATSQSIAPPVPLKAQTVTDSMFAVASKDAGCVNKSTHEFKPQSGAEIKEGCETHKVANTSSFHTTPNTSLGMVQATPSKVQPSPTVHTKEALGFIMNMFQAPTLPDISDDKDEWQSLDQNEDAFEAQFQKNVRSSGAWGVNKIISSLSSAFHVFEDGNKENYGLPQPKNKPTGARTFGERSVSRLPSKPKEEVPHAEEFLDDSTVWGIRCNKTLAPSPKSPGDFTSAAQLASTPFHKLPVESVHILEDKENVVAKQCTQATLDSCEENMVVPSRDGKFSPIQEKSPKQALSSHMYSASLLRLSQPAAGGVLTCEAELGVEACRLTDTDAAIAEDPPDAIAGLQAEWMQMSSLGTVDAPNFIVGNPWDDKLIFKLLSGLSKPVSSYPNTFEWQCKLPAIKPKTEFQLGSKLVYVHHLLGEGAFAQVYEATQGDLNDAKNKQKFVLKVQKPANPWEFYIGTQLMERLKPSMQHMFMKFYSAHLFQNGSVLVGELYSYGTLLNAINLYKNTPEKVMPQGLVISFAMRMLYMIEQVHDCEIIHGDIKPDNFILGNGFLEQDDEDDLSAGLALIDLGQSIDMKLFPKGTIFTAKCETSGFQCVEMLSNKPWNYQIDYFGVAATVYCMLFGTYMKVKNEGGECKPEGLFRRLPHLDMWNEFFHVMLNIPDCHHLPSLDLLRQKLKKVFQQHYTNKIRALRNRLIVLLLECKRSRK
Chain of RAC-beta serine/threonine-protein kinase (Homo sapiens) (P31751 whole entry): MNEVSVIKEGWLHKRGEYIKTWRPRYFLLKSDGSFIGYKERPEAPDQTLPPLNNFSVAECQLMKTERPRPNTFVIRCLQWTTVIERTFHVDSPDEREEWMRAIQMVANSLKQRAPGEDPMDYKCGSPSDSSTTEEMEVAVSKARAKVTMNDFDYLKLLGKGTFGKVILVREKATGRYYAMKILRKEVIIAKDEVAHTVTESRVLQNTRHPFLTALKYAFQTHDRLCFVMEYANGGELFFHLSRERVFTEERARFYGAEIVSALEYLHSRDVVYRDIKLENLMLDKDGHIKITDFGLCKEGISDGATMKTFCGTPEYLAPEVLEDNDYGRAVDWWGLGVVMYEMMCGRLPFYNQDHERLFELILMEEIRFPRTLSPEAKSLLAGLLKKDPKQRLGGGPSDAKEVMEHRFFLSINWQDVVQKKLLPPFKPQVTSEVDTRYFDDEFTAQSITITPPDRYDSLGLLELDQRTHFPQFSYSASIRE
Chain of Fibroblast growth factor receptor 1 (P11362 22-822 limits assumed): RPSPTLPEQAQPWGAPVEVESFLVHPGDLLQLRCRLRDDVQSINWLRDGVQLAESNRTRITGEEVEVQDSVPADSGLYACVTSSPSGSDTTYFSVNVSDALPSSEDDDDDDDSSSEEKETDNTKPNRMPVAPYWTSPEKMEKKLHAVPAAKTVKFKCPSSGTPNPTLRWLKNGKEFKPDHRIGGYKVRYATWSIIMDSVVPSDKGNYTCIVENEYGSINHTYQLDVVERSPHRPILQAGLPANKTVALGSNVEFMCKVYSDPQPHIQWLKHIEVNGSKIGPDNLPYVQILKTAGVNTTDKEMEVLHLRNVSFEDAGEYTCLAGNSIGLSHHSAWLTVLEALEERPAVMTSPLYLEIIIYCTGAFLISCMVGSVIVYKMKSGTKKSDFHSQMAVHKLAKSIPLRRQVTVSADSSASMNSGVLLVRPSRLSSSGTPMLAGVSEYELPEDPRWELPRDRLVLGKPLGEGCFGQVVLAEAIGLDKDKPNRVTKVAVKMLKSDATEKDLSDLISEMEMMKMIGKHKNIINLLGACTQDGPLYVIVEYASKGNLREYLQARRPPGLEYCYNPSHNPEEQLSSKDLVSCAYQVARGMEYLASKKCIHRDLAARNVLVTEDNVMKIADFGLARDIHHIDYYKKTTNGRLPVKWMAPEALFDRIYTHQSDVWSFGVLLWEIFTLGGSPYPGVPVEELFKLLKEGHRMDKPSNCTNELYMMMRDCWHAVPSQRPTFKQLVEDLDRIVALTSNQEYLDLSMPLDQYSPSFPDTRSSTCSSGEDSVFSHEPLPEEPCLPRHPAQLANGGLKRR
Chain of Casein kinase I isoform epsilon (P49674 whole entry, looked up, canonical isoform): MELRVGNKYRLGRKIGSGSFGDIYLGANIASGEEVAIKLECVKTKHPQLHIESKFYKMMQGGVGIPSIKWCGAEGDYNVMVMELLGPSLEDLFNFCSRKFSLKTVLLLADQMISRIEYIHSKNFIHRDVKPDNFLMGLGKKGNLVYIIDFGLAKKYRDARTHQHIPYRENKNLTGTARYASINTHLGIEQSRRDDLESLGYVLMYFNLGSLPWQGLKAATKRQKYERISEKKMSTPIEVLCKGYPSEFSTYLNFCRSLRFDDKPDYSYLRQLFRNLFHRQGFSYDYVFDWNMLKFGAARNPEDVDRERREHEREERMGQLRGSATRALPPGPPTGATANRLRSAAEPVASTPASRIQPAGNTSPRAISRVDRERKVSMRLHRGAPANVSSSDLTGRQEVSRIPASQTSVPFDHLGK
Chain of Cyclin-dependent kinase 8 (P49336 whole entry): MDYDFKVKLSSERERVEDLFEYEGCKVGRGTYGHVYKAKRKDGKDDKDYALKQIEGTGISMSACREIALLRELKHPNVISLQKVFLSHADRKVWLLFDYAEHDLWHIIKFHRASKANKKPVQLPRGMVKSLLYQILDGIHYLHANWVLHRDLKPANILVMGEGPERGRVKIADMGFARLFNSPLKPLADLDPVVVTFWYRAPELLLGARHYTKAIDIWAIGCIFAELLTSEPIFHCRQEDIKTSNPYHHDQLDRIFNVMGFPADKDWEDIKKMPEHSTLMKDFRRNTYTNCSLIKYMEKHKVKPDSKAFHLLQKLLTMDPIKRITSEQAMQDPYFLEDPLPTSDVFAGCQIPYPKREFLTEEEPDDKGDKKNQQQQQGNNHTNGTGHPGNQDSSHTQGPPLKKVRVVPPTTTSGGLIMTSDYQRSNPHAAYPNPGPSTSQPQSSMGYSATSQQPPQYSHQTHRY

Structure (SMILES): CCN(CC)CCCCNc1ncc2cc(-c3cc(OC)cc(OC)c3)c(NC(=O)NC(C)(C)C)nc2n1
- % of control [1]: 0.4%

Structure (SMILES): CCC(=O)N1CCN(c2ccc(-n3c(=O)ccc4cnc5ccc(-c6cnc7ccccc7c6)cc5c43)cc2C(F)(F)F)CC1
- % of control [2]: 79%

Structure (SMILES): O=C(NOC[C@H](O)CO)c1ccc(F)c(F)c1Nc1ccc(I)cc1F
- % of control [3]: 100%

Structure (SMILES): Cc1cc([C@@H](C)Nc2ccccc2C(=O)O)c2nc(N3CCOCC3)cc(=O)n2c1 [AZD-6482]
- % of control [4]: 95%

Structure (SMILES): Cn1cc(-n2cnc3c(NCc4nc5cc(Cl)c(Cl)cc5[nH]4)nc(N4CCOCC4)nc32)cn1
- % of control [5]: -4.28%

Structure (SMILES): CCc1cccc(CC)c1NC(=O)c1nn(C)c2c1CCc1cnc(Nc3ccc(C(=O)NC4CCN(C)CC4)cc3OC(F)(F)F)nc1-2
- IC50 [6]: > 10 µM

Structure (SMILES): CNC(=O)Nc1ccc(-c2nc(N3CC4CCC(C3)O4)c3cnn(C4CCC5(CC4)OCCO5)c3n2)cc1
- % of control [7]: 39%
- % of control [8]: 90%

Structure (SMILES): Cc1cc(F)c(C(=O)Nc2cccc(-c3nncn3C(C)C)n2)cc1-n1cnc(C2CC2)c1
- % of control [9]: 100%

Structure (SMILES): O[C@H]1CC[C@H](Nc2ncc3nc(Nc4c(F)cc(F)cc4F)n([C@H]4CCOC4)c3n2)CC1
- % of control [10]: 100%
- % of control [11]: 100%

Structure (SMILES): CN(C)C/C=C/C(=O)Nc1ccc(C(=O)N2CCCC(Nc3ncc(Cl)c(-c4c[nH]c5ccccc45)n3)C2)cc1 (configuration not stated)
- % of control [12]: 55%
